Test results published in ChEMBL document CHEMBL4602605, “Fluoroquinolones structural and medicinal developments (2013-2018): Where are we now?” (Bioorg Med Chem, 2019).
≈ marks a conversion by molar mass, not a printed value.

Assays:
Assay type in all cases: functional
Enterobacter cloacae = assay: Antimicrobial activity against Enterobacter cloacae ATCC 43560
[1] = test system: Acinetobacter calcoaceticus; assay: Antimicrobial activity against Acinetobacter calcoaceticus ATCC 19606
Escherichia coli [2] = assay: Antimicrobial activity against ESBL non-producing Escherichia coli ATCC 25922
Pseudomonas aeruginosa [3] = assay: Antimicrobial activity against Pseudomonas aeruginosa ATCC 27853
Klebsiella pneumoniae [4] = assay: Antimicrobial activity against ESBL-producing Klebsiella pneumoniae ATCC 700603
Mus musculus = assay: Analgesic activity in Swiss albino mouse assessed as acetic acid-induced writhing number at 50 mg/kg pretreated for 30 mins followed by acetic acid challenge and measured after 5 to 15 mins (reference value: 30.8 +/- 0.37)
Paenibacillus polymyxa = assay: Antibacterial activity against Paenibacillus polymyxa NCDC 64 by single disk method
Staphylococcus aureus [5] = assay: Antibacterial activity against Staphylococcus aureus NCDC 110 by single disk method
Pseudomonas aeruginosa [6] = assay: Antibacterial activity against Pseudomonas aeruginosa NCDC 105 by single disk method
Escherichia coli [7] = assay: Antibacterial activity against Escherichia coli NCDC 134 by single disk method
Metaphire posthuma = assay: Anthelmintic activity against Pheretima posthuma assessed as mean paralysing time at 200 mg/ml
Bacillus subtilis = assay: Antibacterial activity against Bacillus subtilis NCDC 71 by single disk method
[8] = test system: Staphylococcus epidermidis; assay: Antimicrobial activity against methicillin-resistant Staphylococcus epidermidis clinical isolate incubated for 16 hrs by CLSI based agar dilution method
Klebsiella pneumoniae [9] = assay: Antimicrobial activity against Klebsiella pneumoniae ATCC 29522 incubated for 16 hrs by CLSI-based agar dilution method; conditions: ATCC 29522, 16 h
Staphylococcus aureus [10] = assay: Antimicrobial activity against methicillin-susceptible Staphylococcus aureus clinical isolate incubated for 16 hrs by CLSI based agar dilution method
[11] = test system: Staphylococcus epidermidis; assay: Antimicrobial activity against methicillin-susceptible Staphylococcus epidermidis clinical isolate incubated for 16 hrs by CLSI based agar dilution method
Escherichia coli [12] = assay: Antimicrobial activity against Escherichia coli ATCC 700603 incubated for 16 hrs by CLSI-based agar dilution method; conditions: ATCC 700603, 16 h

| Compound | MIC (Enterobacter cloacae) | MIC [1] | MIC (Escherichia coli [2]) | MIC (Pseudomonas aeruginosa [3]) | MIC (Klebsiella pneumoniae [4]) | Activity (Mus musculus) | MIC (Paenibacillus polymyxa) | MIC (Staphylococcus aureus [5]) | MIC (Pseudomonas aeruginosa [6]) | MIC (Escherichia coli [7]) | Time (Metaphire posthuma) | MIC (Bacillus subtilis) | other results |
| --- | --- | --- | --- | --- | --- | --- | --- | --- | --- | --- | --- | --- | --- |
| O=C(O)c1cn([C@@H]2C[C@@H]2F)c2cc(N3CCN(Cn4nc(-c5cccnc5)n(-c5ccccc5)c4=S)CC3)c(F)cc2c1=O | ≤ 0.05 µM | 13 µM (≈ 8 µg/mL) | ≤ 0.05 µM | 1.63 µM (≈ 1 µg/mL) | 1.63 µM (≈ 1 µg/mL) |  |  |  |  |  |  |  |  |
| O=C(O)c1cn([C@@H]2C[C@@H]2F)c2cc(N3CCN(Cn4nc(-c5ccccn5)n(Cc5ccccc5)c4=S)CC3)c(F)cc2c1=O | 0.79 µM (≈ 0.497 µg/mL) | ≤ 0.05 µM | ≤ 0.05 µM | 0.79 µM (≈ 0.497 µg/mL) | 0.79 µM (≈ 0.497 µg/mL) |  |  |  |  |  |  |  |  |
| O=C(O)c1cn([C@@H]2C[C@@H]2F)c2cc(N3CCN(Cn4nc(-c5cccnc5)n(Cc5ccccc5)c4=S)CC3)c(F)cc2c1=O | ≤ 0.05 µM | 6.36 µM (≈ 4 µg/mL) | ≤ 0.05 µM | 1.59 µM (≈ 1 µg/mL) | 0.4 µM (≈ 0.252 µg/mL) |  |  |  |  |  |  |  |  |
| O=C(CN1CCN(c2cc3c(cc2F)c(=O)c(C(=O)O)cn3C2CC2)CC1)Nc1nc2ccc(F)cc2s1 |  |  |  |  |  | 17 | 125 µg/mL (≈ 232 µM) | 35 µg/mL (≈ 64.9 µM) | 60 µg/mL (≈ 111 µM) | 80 µg/mL (≈ 148 µM) | 27.8 min | 40 µg/mL (≈ 74.1 µM) |  |
| CCn1cc(C(=O)O)c(=O)c2cc(F)c(N3CCN(CC(=O)Nc4nc5ccc([N+](=O)[O-])cc5s4)CC3)cc21 |  |  |  |  |  | 17.8 | 75 µg/mL (≈ 135 µM) | 105 µg/mL (≈ 189 µM) | 55 µg/mL (≈ 99.2 µM) | 125 µg/mL (≈ 225 µM) | 27 min | 15 µg/mL (≈ 27 µM) |  |
| CCn1cc(C(=O)O)c(=O)c2cc(F)c(N3CCN(CC(O)Cn4cc([N+](=O)[O-])nc4Cl)CC3)c(OC)c21 (configuration not stated) |  |  |  |  |  |  |  |  |  |  |  |  | MIC [8]: > 32 µg/mL; MIC (Klebsiella pneumoniae [9]): > 32 µg/mL; MIC (Staphylococcus aureus [10]): > 32 µg/mL; MIC [11]: 32 µg/mL (≈ 57.9 µM); MIC (Escherichia coli [12]): > 32 µg/mL |
| O=C(CN1CCN(c2cc3c(cc2F)c(=O)c(C(=O)O)cn3C2CC2)CC1)Nc1nc2ccc(Cl)cc2s1 |  |  |  |  |  | 13.8 | 15 µg/mL (≈ 27 µM) | 3 µg/mL (≈ 5.4 µM) | 15 µg/mL (≈ 27 µM) | 8 µg/mL (≈ 14.4 µM) | 26 min | 4 µg/mL (≈ 7.19 µM) |  |
| COc1c(N2CCN(CC(=O)Nc3nc4ccc(Cl)c(Cl)c4s3)C(C)C2)c(F)cc2c(=O)c(C(=O)O)cn(C3CC3)c12 (configuration not stated) |  |  |  |  |  | 0.73 | 25 µg/mL (≈ 39.4 µM) | 10 µg/mL (≈ 15.8 µM) | 30 µg/mL (≈ 47.3 µM) | 70 µg/mL (≈ 110 µM) | 2.7 min | 25 µg/mL (≈ 39.4 µM) |  |
| O=C(O)c1cn([C@@H]2C[C@@H]2F)c2cc(N3CCN(Cn4nc(-c5cccc(O)c5)n(-c5ccccc5)c4=S)CC3)c(F)cc2c1=O | ≤ 0.05 µM | 6.35 µM (≈ 4 µg/mL) | ≤ 0.05 µM | 1.59 µM (≈ 1 µg/mL) | 1.59 µM (≈ 1 µg/mL) |  |  |  |  |  |  |  |  |
| CCn1cc(C(=O)O)c(=O)c2cc(F)c(N3CCN(CC(=O)Nc4nc5ccc(C)cc5s4)CC3)cc21 |  |  |  |  |  | 17.8 | 45 µg/mL (≈ 85.9 µM) | 25 µg/mL (≈ 47.7 µM) | 20 µg/mL (≈ 38.2 µM) | 65 µg/mL (≈ 124 µM) | 28.4 min | 30 µg/mL (≈ 57.3 µM) |  |
| COc1ccccc1-c1nn(CN2CCN(c3cc4c(cc3F)c(=O)c(C(=O)O)cn4[C@@H]3C[C@@H]3F)CC2)c(=S)n1-c1ccccc1 | ≤ 0.05 µM | 6.21 µM (≈ 4 µg/mL) | ≤ 0.05 µM | 3.1 µM (≈ 2 µg/mL) | 0.78 µM (≈ 0.503 µg/mL) |  |  |  |  |  |  |  |  |
| COc1cc(OC)cc(-c2nn(CN3CCN(c4cc5c(cc4F)c(=O)c(C(=O)O)cn5[C@@H]4C[C@@H]4F)CC3)c(=S)n2-c2ccccc2)c1 | 5.93 µM (≈ 4 µg/mL) | 1.48 µM (≈ 0.999 µg/mL) | ≤ 0.04 µM | 0.09 µM (≈ 0.0607 µg/mL) | 1.48 µM (≈ 0.999 µg/mL) |  |  |  |  |  |  |  |  |
| COc1cccc(-c2nn(CN3CCN(c4cc5c(cc4F)c(=O)c(C(=O)O)cn5[C@@H]4C[C@@H]4F)CC3)c(=S)n2-c2ccccc2)c1 | ≤ 0.05 µM | 12.4 µM (≈ 8.01 µg/mL) | ≤ 0.05 µM | 6.21 µM (≈ 4 µg/mL) | 1.55 µM (≈ 0.999 µg/mL) |  |  |  |  |  |  |  |  |
| O=C(O)c1cn([C@@H]2C[C@@H]2F)c2cc(N3CCN(Cn4nc(-c5cc6ccccc6cn5)n(Cc5ccccc5)c4=S)CC3)c(F)cc2c1=O | ≤ 0.04 µM | 11.8 µM (≈ 8.02 µg/mL) | ≤ 0.04 µM | 1.47 µM (≈ 0.999 µg/mL) | 1.47 µM (≈ 0.999 µg/mL) |  |  |  |  |  |  |  |  |
| COc1ccc(-c2nn(CN3CCN(c4cc5c(cc4F)c(=O)c(C(=O)O)cn5[C@@H]4C[C@@H]4F)CC3)c(=S)n2-c2ccccc2)cc1OC | ≤ 0.04 µM | 23.7 µM (≈ 16 µg/mL) | ≤ 0.04 µM | 1.48 µM (≈ 0.999 µg/mL) | 2.97 µM (≈ 2 µg/mL) |  |  |  |  |  |  |  |  |
| O=C(O)c1cn([C@@H]2C[C@@H]2F)c2cc(N3CCN(Cn4nc(-c5ccccc5O)n(-c5ccccc5)c4=S)CC3)c(F)cc2c1=O | ≤ 0.05 µM | 12.7 µM (≈ 8 µg/mL) | 0.1 µM (≈ 0.0631 µg/mL) | 1.59 µM (≈ 1 µg/mL) | 1.59 µM (≈ 1 µg/mL) |  |  |  |  |  |  |  |  |
| COc1c(N2CCN(CC(=O)Nc3nc4c(C)cccc4s3)C(C)C2)c(F)cc2c(=O)c(C(=O)O)cn(C3CC3)c12 (configuration not stated) |  |  |  |  |  | 20.8 | 60 µg/mL (≈ 104 µM) | 70 µg/mL (≈ 121 µM) | 85 µg/mL (≈ 147 µM) | 75 µg/mL (≈ 129 µM) | 32.4 min | 120 µg/mL (≈ 207 µM) |  |
